Laboratory results taken from patent US12263277B2, “Uniaxially-aligned nanofiber scaffolds and methods for producing and using same” (Oridivus LLC, priority 2019, dated 2025).
“Also recorded” adds a separate entry of the source.

Legend:
S1PRs = details: all of the S1PRs; cited from earlier work
IL-1 = assay: Quantitative PCR of hard palate mucosa around the injury, IL-1; format: in vivo, mice; details: vs blank scaffold
Description: (§1) FTY720 is a sphingosine-1-phosphate receptor analogue that is linked to LY6C^lo (anti-inflammatory) monocytes and M2 (Pro-regenerative) macrophages attraction. According to one embodiment, for analysis of lymphocyte populations, cells are stained for flow cytometry with one or more of the following antibodies: Zombie NIR™ Fixable Viability Kit (Biolegend), PE anti-mouse MERTK (Mer) Antibody (Biolegend), Brilliant Violet 711™ anti-mouse CD64 (FcγRI) Antibody (Biolegend), Brilliant Violet 510™ anti-mouse Ly-6C Antibody (Biolegend), FITC anti-mouse CD206 (MMR) Antibody (Biolegend), Brilliant Violet 421™ anti-mouse/human CD11b Antibody (Biolegend). […]
(§2) According to one embodiment, during oral cavity wound healing following injury, there is predominantly a pro-inflammatory lymphocytic infiltrate. […] According to one embodiment, the IL assessment is performed in samples with and without scaffold placement, and includes using quantitative PCR of hard palate mucosa at day 3, 5, and 7 and comparing results to controls. In at least one embodiment, serum is collected and evaluated for levels of IL1, IL6, IL10 and VEGF using ELIZA to determine if there are systemic alterations in inflammatory and vasculogenic gene regulation and compared to uninjured controls. […]

[1] = system: palatine and surrounding hard palate bones; assay: μCT evaluation of hard palate bones after ONF creation; format: in vivo, mice; details: following ONF creation
Procedure: According to one embodiment, similar to humans, the critical wound healing time point is immediately following hard palate injury (or surgery) and fistula healing is unlikely after this critical time period. To assess the critical wound healing time, in at least one embodiment, ONFs are created in Murine models and standard histomorphologic evaluation of the mice following injury at day 0, 3, 5, 7, and 14 days is performed. According to one embodiment, the specimens are assessed using H+E staining of coronal sections in […] (10 male and 10 female) each to evaluate: the width of the ONF, the presence or absence of inflammatory infiltrate at the wound edges, the formation of a basement membrane in the healing areas (using type IV collagen and laminin staining). In at least one embodiment, the exposure of the maxillary and palatine bones as well as the surrounding maxillary structures are evaluated using micro-computed tomography (μCT) imaging.
According to one embodiment, ONF area width is measured at each of the time points and compared to controls. […] In various embodiments, to measure the proliferative and apoptosis response following oral injury, proliferation and apoptosis are assessed. […]

[2] = In vitro release of FTY720 from controlled-release polymers; format: physicochemical; details: acid-capped L-A and methyl-ester capped H-ME polymers, incubation in vitro
Description: In one or more embodiments, the S1PR agonist FTY720 is differentially released from polymers for controlled release (“acid-capped” L-A and “methyl-ester capped” H-ME polymers). […] According to one embodiment, an immunoregenerative approach is executed to control how M1 to M2 are spatially and temporally regulated by recruitment of anti-inflammatory monocytes (AM). In at least one embodiment, the immunoregenerative approach includes determining how localized administration of FTY720 is compartmentalized in vivo. In one or more embodiments, the phosphorylated form of the drug FTY720-P is primarily responsible for receptor mediated signaling and has much lower threshold effective concentrations than FTY720 at all of the S1PRs. In at least one embodiment, similar to S1P, FTY720-P must be dephosphorylated by LPP3 to enter the cell. According to one embodiment, once inside the cell, FTY720 can be phosphorylated by sphingosine kinase 2 (SPHK2) and subsequently exported from the cell by Spns2. In various embodiments, the ability of FTY720 to be reversibly phosphorylated allows it to undergo multiple cycles of signaling in the tissue, contributing to a sustained gradient. According to one embodiment, the regulatory roles of local gradients of FTY720 and FTY720-P are differentiable.

[3] = system: oronasal fistula (ONF) in the hard palate; assay: Murine oronasal fistula (ONF) model, wound healing after scaffold implantation; format: in vivo, mice
Description: To understand the wound healing characteristics of the oral mucosa, the present disclosure provides an ONF model utilizing thermal injury for creating the ONF. In at least one embodiment, the ONF model permits study of the cellular and inflammatory infiltration to the wound site during the healing process. An exemplary analysis of FTY720 effects on ONF healing in the model includes, but is not limited to: 1) forming an ONF in each of a plurality of samples (e.g., mice); 2) dividing the mice into 3 groups, a no implant group, a group where blank nanofiber scaffolds are implanted, and a group where uniaxially-aligned nanofiber scaffolds with FTY720 are implanted; and 3) evaluating ONF healing results at predetermined time points (e.g., day 3, day 5, day 7, etc.).
To produce a Murine ONF model, 12 week old C57/b6 mice are obtained (for example from Jackson Laboratories) and anesthetized using intraperitoneal ketamine. According to one embodiment, the oral cavity is accessed using a retractor while the mice are spontaneously breathing. […] The time points include 0, 3, 5, and 7 days and healing of the ONF is assessed using histomorphometry while functional outcomes are measured evaluating for poor oral intake measured by body weight loss, dehydration (serum sodium using an ELIZA assay), and eventual death (Kaplan Meir curve).
After staining the slides, Hamamatsu NanoZoomer 2.0 HT processor was used to scan slides and they were then analyzed in Hamamatsu NDP.view2 Viewing Software. […]
To determine if a targeted auto-therapy induction of pro-regenerative monocytes and macrophages would lead to improved ONF healing, the delivery of FTY-720, a sphingosine analog that increases pro-regenerative monocytes and macrophages was tested via a nanofiber scaffold. […] With reference to FIGS. 13A-D, to examine the effects of the FTY-720 on the host inflammatory response, quantitative polymerase chain reaction (PCR) on the mucosal tissue surrounding the injury was performed and determined that IL-1 was decreased in the presence of FTY-720 whereas IL-6 and IL-10 were increased.

LY6C^lo monocytes = assay: Flow cytometry of hard palate mucosa in ONF model, monocytes; format: in vivo, mice
Description: (§3) FTY720 is a sphingosine-1-phosphate receptor analogue that is linked to LY6C^lo (anti-inflammatory) monocytes and M2 (Pro-regenerative) macrophages attraction. According to one embodiment, for analysis of lymphocyte populations, cells are stained for flow cytometry with one or more of the following antibodies: Zombie NIR™ Fixable Viability Kit (Biolegend), PE anti-mouse MERTK (Mer) Antibody (Biolegend), Brilliant Violet 711™ anti-mouse CD64 (FcγRI) Antibody (Biolegend), Brilliant Violet 510™ anti-mouse Ly-6C Antibody (Biolegend), FITC anti-mouse CD206 (MMR) Antibody (Biolegend), Brilliant Violet 421™ anti-mouse/human CD11b Antibody (Biolegend). In various embodiments, to detect and sort for anti-inflammatory LY6C^lo monocytes and M2 Macrophages, real-time polymerase chain reaction (PCR) analysis is performed with iQ SYBR green supermix (Bio-Rad, 1708882) in a Bio-Rad iCycler for 40 cycles to assess the expression of inflammatory IL-1, IL-4 and IL-6 and anti-inflammatory IL-10 and transcription factor Sox2, which is related to keratinocyte migration and proliferation. In one or more embodiments, slides are stained for H&E and Phospho-histone 3 to assess keratinocytes undergoing mitosis.
In various embodiments, flow cytometry of inflammatory cells is performed to characterize monocyte and macrophage phenotypes. In one or more embodiments, for analysis of lymphocyte populations, hard palate mucosa is harvested and digested in 1 mg/ml collagenase I (Sigma) for 45 minutes at 37 degrees Celsius. In at least one embodiment, the digested mucosa is filtered through a cell strainer to obtain a single cell suspension. According to one embodiment, the single-cell suspensions are stained for live cells using either Zombie Green or Zombie NIR (Biolegend) dyes in cell-culture grade PBS per manufacturer instructions. In various embodiments, cells are stained with cell phenotyping antibodies in a 1:1 volume ratio of 3% FBS and Brilliant Stain Buffer (BD Biosciences) according to standard procedures and analyzed on a FACS AriaIIIu flow cytometer (BD Biosciences). […] According to one embodiment, 30 μL of Accucheck Counting Beads (Invitrogen) are added per sample for absolute quantification of cell populations.
(§4) For analysis of lymphocyte populations, oral mucosal tissues were harvested and digested in 1 mg/ml collagenase I (Sigma) for 45 minutes at 37 degrees Celsius. […] Cells were then stained with cell phenotyping antibodies in a 1:1 volume ratio of 3% FBS and Brilliant Stain Buffer (BD Biosciences) according to standard procedures and analyzed on a FACS AriaIIIu flow cytometer (BD Biosciences). […]

IL-10 = assay: Quantitative PCR of hard palate mucosa around the injury, IL-10; format: in vivo, mice; details: vs blank scaffold
Description: as §1, §2

cutaneous wound = assay: Cutaneous wound healing / dorsal skinfold window chamber model; format: in vivo
Description: In one example, FTY720 and FTY720-P are released from 1 mm diameter thin films in a cutaneous dorsal skinfold window chamber for 3 days to investigate the in vivo gradient produced by H-ME PLGA film release of S1P receptor targeting compounds.
Multiple approaches can be used to improve the recruitment of the pro-regenerative monocytes and macrophages to cutaneous wounds.

M2 macrophages = assay: Flow cytometry of hard palate mucosa in ONF model, macrophages; format: in vivo, mice
Description: as §3, with “In one or more embodiments, slides are stained for H&E and Phospho-histone 3 to assess keratinocytes undergoing mitosis.” left out
In various embodiments, flow cytometry of inflammatory cells is performed to characterize monocyte and macrophage phenotypes. […] In various embodiments, cells are stained with cell phenotyping antibodies in a 1:1 volume ratio of 3% FBS and Brilliant Stain Buffer (BD Biosciences) according to standard procedures and analyzed on a FACS AriaIIIu flow cytometer (BD Biosciences). […] According to one embodiment, 30 μL of Accucheck Counting Beads (Invitrogen) are added per sample for absolute quantification of cell populations.
as §4

IL-6 = assay: Quantitative PCR of hard palate mucosa around the injury, IL-6; format: in vivo, mice; details: vs blank scaffold
Description: as §1, §2

[4] = cutaneous wound, local delivery

Row | Compound | threshold effective concentrations relative to FTY720 (S1PRs) | IL-1 expression (IL-1) | μCT changes to the underlying bone [1] | in vitro release profile [2] | ONF wound healing ([3]; day 5, vs blank scaffold) | ONF wound healing ([3]; day 7, vs blank scaffold) | ONF / oral cavity wound healing ([3]; no time point stated, vs blank scaffold) | LY6C^lo % of total CD11B+ cells (LY6C^lo monocytes; day 3, flow cytometry, implanted scaffold, blank 12.7±5.7) [%] | LY6Clo monocytes in wound bed (LY6C^lo monocytes; day 3, vs blank scaffolds) | LY6C^lo % of total cells (LY6C^lo monocytes; day 3 post-ONF formation, flow cytometry, implanted scaffold, blank 3.7%±0.9) | Ly6Clo monocytes in the wound bed (LY6C^lo monocytes; during healing, no time point stated, vs blank scaffolds) | IL-10 expression (IL-10) | migration of M2 macrophages into a wound bed (cutaneous wound; cutaneous wound context) | cutaneous wound healing (cutaneous wound; [4]) | recruitment of anti-inflammatory (AM, Ly6C^lo) monocytes (cutaneous wound; [4]) | vascularity (cutaneous wound; cutaneous wound, thin film release, 3 days) | M2 Macrophages % of total cells (M2 macrophages; day 3, flow cytometry, implanted scaffold, blank 1.4±0.2%) [%] | M2 Macrophages % of Macrophages (M2 macrophages; day 3, flow cytometry, implanted scaffold, blank 34.7±6.4%) [%] | migration of M2 macrophages into a wound bed (M2 macrophages; e.g. in the hard palate, no time point) | IL-6 expression (IL-6)
1 | CCCCCCCCc1ccc(CC[C@](N)(CO)COP(=O)(O)O)cc1 [FTY720-P] | much lower | – | – | – | – | – | – | – | – | – | – | – | – | – | – | – | – | – | – | –
2 | CCCCCCCCc1ccc(CCC(N)(CO)CO)cc1 [FTY720] | – | decreased | did not reveal any changes | initial burst in the first hours of incubation in vitro, followed by a delay and a second phase of release between 3 and 5 days | wound contracture | complete healing | healing, including reepithelization; also recorded: improved wound healing; also recorded: greater injury healing and ONF prevention | 22.5±5.6 | increased | 5.7%±0.6 | increase | increased | increases the migration | improved wound healing | increases the frequency; also recorded: selectively recruits non-classical Ly6C^lo monocytes; also recorded: significantly increases the proportion; also recorded: recruits AM monocytes | increased vascularity | 3.7±0.5 | 63.6±3.9 | increases the migration | increased
